Experiments:
female ICR mice = experiment: In vivo hEPO mRNA expression, serum hEPO after tail vein injection; details: 0.5 mg/kg tail vein; for in vivo mRNA expression of sphingomyelin-containing LNP compared to corresponding DSPC control formulation: FIG. 9; for hEPO protein expression level in mice among formulations of Table 6.7: FIG. 7, sphingomyelin of different tail length
Method: Lipid nanoparticles encapsulating human erythropoietin (hEPO) mRNA were prepared as described above, and systemically administered to 6-8 week old female ICR mice (Xipuer-Bikai, Shanghai) at 0.5 mg/kg dose by tail vein injection. Mice were euthanized by CO2 overdoses at 6 hours post administration, and blood samples were taken for hEPO measurement. Particularly, serum were separated from total blood by centrifugation at 5000 g for 10 minutes at 4° C., snap-frozen and stored at −80° C. for analysis. The serum hEPO level was measured using an ELSA assay carried out using a commercial kit (DEP00, R&D systems) according to manufacturer's instructions. The hEPO expression levels (μg/ml) measured from the tested group are plotted in FIG. 4, showing the mean value and standard deviation (SD) of at least five repeated experiments (test animals) for each group.
(§1) Each LNP formulation was systemically administered to 6-8 week old female ICR mice (Xipuer-Bikai, Shanghai) at 0.5 mg/kg dose by tail vein injection, and blood samples were taken for hEPO measurement as described herein. The hEPO expression levels (μg/ml) measured from the tested group are plotted in FIG. 6, showing the mean value and standard deviation (SD) of at least five repeated experiments (test animals) for each group.
as §1, with “7,” for “6,”
as §1, with “9,” for “6,”, “group. As shown, for each of the tested cationic lipids, the average in vivo expression level of mRNA was higher for the sphingomyelin containing composition as compared to the corresponding control formulation containing an equivalent amount of DSPC instead of sphingomyelin.” for “group.”

Hela cells = experiment: In vitro GFP mRNA expression from LNP formulations; type: cell-based; details: for in vitro GFP expression of LNP formulated using sphingomyelin with this cationic lipid: FIG. 3C
Method: (§2) Lipid nanoparticles encapsulating green fluorescent protein (GFP) mRNA were prepared as described above. Hela cell line was seeded in a 96-well plate. LNP formulation was mixed with 10 μg/mL ApoE at 1:1 (v/v) ratio, then added to the cells at 200 ng/well or 400 ng/well concentrations, and incubated for 36 to 48 hours. GFP intensity was measured with […] following manufacturer's instructions, and fluorescence intensity (relative light units; RLU) of different groups were plotted in FIG. 3A to 3C, showing the mean value and standard deviation (SD) of at least five repeated experiments for each group.
as §2, with “Hela” for “Lipid nanoparticles encapsulating green fluorescent protein (GFP) mRNA were prepared as described above. Hela”, “ratio at 37° C. for 15 min,” for “ratio,”, “at” for “at 200 ng/well or”, “8,” for “3A to 3C,”, “three” for “five”

## CCCCCCCCC(CCCCCC)C(=O)OCCCCCCN(CCCCO)CCCCCCOC(=O)C(CCCCCC)CCCCCCCC (stereo not drawn) [ALC-0315, reference compound]
Female ICR mice
  in vivo mRNA expression of sphingomyelin-containing LNP compared to corresponding DSPC control formulation: significantly higher

## CCCCCCCCC(CCCCCC)COC(=O)CCCCCN(CCCCCC(=O)OCC(CCCCCC)CCCCCCCC)CCN(CCO)C1CCC1 (stereo not drawn) [Formulation C1]
Hela cells
  in vitro GFP expression of LNP formulated using sphingomyelin with this cationic lipid: enhanced in vitro GFP expression
Female ICR mice
  in vivo mRNA expression of sphingomyelin-containing LNP compared to corresponding DSPC control formulation: significantly higher

## CCCCCCCCC(CCCCCCCC)CNC(=O)CCCCCN(CCO)CCN(CCCCCC(=O)OCC(CCCCCCCC)CCCCCCCC)C1CCC1 [Formulation C3]
Hela cells; GFP mRNA, 400 ng/well, FIG. 8
  in vitro mRNA expression of sphingomyelin-containing LNP compared to corresponding DSPC control formulation: significantly higher

## CCCCCCCC(=O)OCC(CCCCN(CCCCCO)CCCCC(COC(=O)CCCCCCC)COC(=O)CCCCCCC)COC(=O)CCCCCCC [Formulation C14]
Female ICR mice
  in vivo mRNA expression of sphingomyelin-containing LNP compared to corresponding DSPC control formulation: significantly higher

## CCCCC/C=C\C/C=C\CCCCCCCC(=O)OCCCCCCN(CCO)CCCCC(COC(=O)CCCCCCC)COC(=O)CCCCCCC [Formulation C16]
Female ICR mice
  in vivo mRNA expression of sphingomyelin-containing LNP compared to corresponding DSPC control formulation: significantly higher

## CCCCCCCCCOC(=O)CCCCCCCN(CCO)CCCCCCCC(=O)OC(CCCCCCCC)CCCCCCCC [Lipid 5, reference compound]
Hela cells
  in vitro GFP expression of LNP formulated using sphingomyelin with this cationic lipid: enhanced in vitro GFP expression

## CCCCCCCCCCCCC/C=C/[C@@H](O)[C@H](COP(=O)([O-])OCC[N+](C)(C)C)NC(=O)CCCCCCCCCCCCC [SM-02, 14:0(d18:1/14:0)]
Female ICR mice
  hEPO protein expression level in mice among formulations of Table 6.7: highest protein expression level

## CCCCCCCCCCCCC/C=C/[C@@H](O)[C@H](COP(=O)([O-])OCC[N+](C)(C)C)NC(=O)CCCCCCCCCCCCCCC [SM-03, 16:0(d18:1/16:0)]
Female ICR mice
  hEPO protein expression level in mice among formulations of Table 6.7: highest protein expression level
